Laboratory results as given in patent publication US8329717B2, “Pyrimidine derivatives and their use for controlling undesired plant growth” (Bayer Cropscience AG, priority 2008, dated 2012).

Legend:
Lolium multiflorum [1] = assay: Post-emergence herbicidal effect; type: in vivo; details: Dosage 320 g/ha, one-leaf stage, visual scoring after ca. 3 weeks vs untreated controls, 100% = plants have died
Protocol: (§1) The following abbreviations are used in the tables below: [table] 2. Post-Emergence Herbicidal Effect and Crop Plant Compatibility Seeds of monocotyledonous or dicotyledonous weed plants or crop plants are planted in wood-fiber pots in sandy loam, covered with earth and grown in a greenhouse under good growth conditions. 2 to 3 weeks after sowing, the test plants are treated in the one-leaf stage. The compounds according to the invention, formulated in the form of wettable powders (WP) or as emulsion concentrates (EC), are then sprayed onto the green plant parts as aqueous suspension or emulsion at a water application rate of 600 to 800 l/ha (converted) with the addition of 0.2% of wetting agent. The dosage of the compounds according to the invention is given in grams per hectare. After ca. 3 weeks' standing time of the test plants in the greenhouse under optimum growth conditions, the effect of the preparations is scored visually in comparison with untreated controls (herbicidal effect in percent (%): 100% effect=plants have died, 0% effect=as control plants).

Stellaria media [2] = assay: Post-emergence herbicidal effect; type: in vivo; details: Dosage 320 g/ha, one-leaf stage, visual scoring after ca. 3 weeks vs untreated controls, 100% = plants have died
Protocol: as §1

Setaria viridis [3] = assay: Post-emergence herbicidal effect; type: in vivo; details: Dosage 320 g/ha, one-leaf stage, visual scoring after ca. 3 weeks vs untreated controls, 100% = plants have died
Protocol: as §1

Veronica persica [4] = assay: Post-emergence herbicidal effect; type: in vivo; details: Dosage 320 g/ha, one-leaf stage, visual scoring after ca. 3 weeks vs untreated controls, 100% = plants have died
Protocol: as §1

Amaranthus retroflexus [5] = assay: Post-emergence herbicidal effect; type: in vivo; details: Dosage 320 g/ha, one-leaf stage, visual scoring after ca. 3 weeks vs untreated controls, 100% = plants have died
Protocol: as §1

Alopecurus myosuroides [6] = assay: Post-emergence herbicidal effect; type: in vivo; details: Dosage 320 g/ha, one-leaf stage, visual scoring after ca. 3 weeks vs untreated controls, 100% = plants have died
Protocol: as §1

Echinochloa crus-galli [7] = assay: Post-emergence herbicidal effect; type: in vivo; details: Dosage 320 g/ha, one-leaf stage, visual scoring after ca. 3 weeks vs untreated controls, 100% = plants have died
Protocol: as §1

Lolium multiflorum [8] = assay: Pre-emergence herbicidal effect; type: in vivo; details: Dosage 320 g/ha, visual scoring after 3 weeks vs untreated controls, 100% = plants have died
Source text: (§2) 1. Pre-Emergence Herbicidal Effect and Crop Plant Compatibility Seeds of monocotyledonous or dicotyledonous weed plants or crop plants are planted in wood-fiber pots in sandy loam and covered with earth. The compounds according to the invention, formulated in the form of wettable powders (WP) or as emulsion concentrates (EC), are then applied as aqueous suspension or emulsion at a water application rate of 600 to 800 l/ha (converted) with the addition of 0.2% of wetting agent to the surface of the covering earth. The dosage of the compounds according to the invention is given in grams per hectare. Following the treatment, the pots are placed in a greenhouse and kept under good growth conditions for the test plants. The visual scoring of the damage on the test plants is carried out after an experiment time of 3 weeks in comparison with untreated controls (herbicidal effect in percent (%): 100% effect=plants have died, 0% effect=as control plants). The following abbreviations are used in the tables below: [table]

Matricaria inodora = assay: Pre-emergence herbicidal effect; type: in vivo; details: Dosage 320 g/ha, visual scoring after 3 weeks vs untreated controls, 100% = plants have died
Source text: as §2

Stellaria media [9] = assay: Pre-emergence herbicidal effect; type: in vivo; details: Dosage 320 g/ha, visual scoring after 3 weeks vs untreated controls, 100% = plants have died
Source text: as §2

Setaria viridis [10] = assay: Pre-emergence herbicidal effect; type: in vivo; details: Dosage 320 g/ha, visual scoring after 3 weeks vs untreated controls, 100% = plants have died
Source text: as §2

Veronica persica [11] = assay: Pre-emergence herbicidal effect; type: in vivo; details: Dosage 320 g/ha, visual scoring after 3 weeks vs untreated controls, 100% = plants have died
Source text: as §2

Amaranthus retroflexus [12] = assay: Pre-emergence herbicidal effect; type: in vivo; details: Dosage 320 g/ha, visual scoring after 3 weeks vs untreated controls, 100% = plants have died
Source text: as §2

Alopecurus myosuroides [13] = assay: Pre-emergence herbicidal effect; type: in vivo; details: Dosage 320 g/ha, visual scoring after 3 weeks vs untreated controls, 100% = plants have died
Source text: as §2

Echinochloa crus-galli [14] = assay: Pre-emergence herbicidal effect; type: in vivo; details: Dosage 320 g/ha, visual scoring after 3 weeks vs untreated controls, 100% = plants have died
Source text: as §2

PHBPU = assay: Post-emergence herbicidal effect; type: in vivo; details: Dosage 320 g/ha, one-leaf stage, visual scoring after ca. 3 weeks vs untreated controls, 100% = plants have died
Protocol: as §1, with “2.” for “The following abbreviations are used in the tables below: [table] 2.”

[15] = logp (HCOOH), chemicophysical data
Viola tricolor [16] = assay: Post-emergence herbicidal effect; type: in vivo; details: Dosage 320 g/ha, one-leaf stage, visual scoring after ca. 3 weeks vs untreated controls, 100% = plants have died
Protocol: as §1

Abutilon theophrasti = assay: Post-emergence herbicidal effect; type: in vivo; details: Dosage 320 g/ha, one-leaf stage, visual scoring after ca. 3 weeks vs untreated controls, 100% = plants have died
Protocol: as §1

Polygonum convolvulus [17] = assay: Post-emergence herbicidal effect; type: in vivo; details: Dosage 320 g/ha, one-leaf stage, visual scoring after ca. 3 weeks vs untreated controls, 100% = plants have died
Protocol: as §1

Viola tricolor [18] = assay: Pre-emergence herbicidal effect; type: in vivo; details: Dosage 320 g/ha, visual scoring after 3 weeks vs untreated controls, 100% = plants have died
Source text: as §2

Polygonum convolvulus [19] = assay: Pre-emergence herbicidal effect; type: in vivo; details: Dosage 320 g/ha, visual scoring after 3 weeks vs untreated controls, 100% = plants have died
Source text: as §2

Avena fatua = assay: Pre-emergence herbicidal effect; type: in vivo; details: Dosage 320 g/ha, visual scoring after 3 weeks vs untreated controls, 100% = plants have died
Source text: as §2

Compound	Post-emergence herbicidal effect LOLMU (Lolium multiflorum [1])	Post-emergence herbicidal effect STEME (Stellaria media [2])	Post-emergence herbicidal effect VERPE (Veronica persica [4])	Post-emergence herbicidal effect AMARE (Amaranthus retroflexus [5])	Post-emergence herbicidal effect ECHCG (Echinochloa crus-galli [7])	Pre-emergence herbicidal effect LOLMU (Lolium multiflorum [8])	Pre-emergence herbicidal effect MATIN (Matricaria inodora)	Pre-emergence herbicidal effect STEME (Stellaria media [9])	Pre-emergence herbicidal effect SETVI (Setaria viridis [10])	Pre-emergence herbicidal effect VERPE (Veronica persica [11])	Pre-emergence herbicidal effect AMARE (Amaranthus retroflexus [12])	Pre-emergence herbicidal effect ALOMY (Alopecurus myosuroides [13])	Pre-emergence herbicidal effect ECHCG (Echinochloa crus-galli [14])	Post-emergence herbicidal effect PHBPU (PHBPU)	logp (HCOOH) [15]	Post-emergence herbicidal effect VIOTR (Viola tricolor [16])	Post-emergence herbicidal effect ABUTH (Abutilon theophrasti)	Post-emergence herbicidal effect POLCO (Polygonum convolvulus [17])	Pre-emergence herbicidal effect VIOTR (Viola tricolor [18])	further results
Nc1nc(N[C@@H]2CCCc3ccccc32)ncc1Cl [Example 1.106]	90%	80%	80%	80%	90%	100%	90%	100%	100%	100%	100%	100%	90%	–	–	–	–	–	–	Post-emergence herbicidal effect SETVI (Setaria viridis [3]): 80%; Post-emergence herbicidal effect ALOMY (Alopecurus myosuroides [6]): 80%
Nc1nc(N[C@@H]2CCCc3ccccc32)ncc1I [Example 1.37]	–	95%	90%	100%	80%	100%	90%	100%	–	100%	100%	–	100%	80%	wax-like; logp (HCOOH): 1.32; 1H-NMR (CDCl3, 400 MHZ, δ in ppm): 1.85 (m, 2H, CH2);	80%	85%	–	–	–
Cc1nc(NC2c3ccccc3CC2C)nc(N)c1C#N (racemic) [Example 1.23]	90%	90%	90%	80%	100%	–	–	–	–	–	–	–	–	80%	solid; logp (HCOOH): 1.99; 1H-NMR (CDCl3, 400 MHZ, δ in ppm): 1.25 (d, 3H, CH3);	90%	80%	100%	–	Post-emergence herbicidal effect SETVI (Setaria viridis [3]): 90%
CCc1nc(N[C@@H]2CCc3ccccc32)nc(N)c1C#N [Example 1.62, 4-Amino-2-[(1R)-2,3-dihydro-1H-inden-1-ylamino]-6-ethylpyrimidine-5-carbonitrile]	90%	80%	80%	–	90%	80%	90%	100%	90%	100%	–	80%	100%	80%	–	–	–	80%	100%	chromatographic logP ([15]; HCOOH (formic acid)): 2.18; Post-emergence herbicidal effect ALOMY (Alopecurus myosuroides [6]): 80%
Cc1ccc2c(c1)[C@H](Nc1nc(N)cc(Cl)n1)[C@@H](C)C2 [Example 1.75]	–	87%	85%	90%	85%	95%	100%	100%	95%	100%	100%	100%	100%	90%	–	–	–	80%	100%	Pre-emergence herbicidal effect POLCO (Polygonum convolvulus [19]): 100%; Pre-emergence herbicidal effect AVEFA (Avena fatua): 90%
Cc1nc(NC2CCc3ccc(C(C)C)cc32)nc(N)c1C#N (racemic) [Example 1.28]	–	–	90%	90%	90%	–	–	–	–	–	–	–	–	–	wax-like; logp (HCOOH): 2.68; 1H-NMR (CDCl3, 400 MHZ, δ in ppm): 1.20 (d, 6H, CH3);	90%	90%	90%	–	–
CC[C@H]1Cc2ccccc2[C@@H]1Nc1nc(C)c([N+](=O)[O-])c(N)n1 [Example 1.126]	–	90%	85%	–	80%	–	100%	100%	85%	100%	100%	–	95%	80%	–	–	–	–	100%	Pre-emergence herbicidal effect POLCO (Polygonum convolvulus [19]): 90%
